From patent publication US9040673B2, “Synthesis and identification of novel RSK-specific inhibitors” (University of Virginia Patent Foundation, priority 2009, dated 2015)
Where two headings read alike, the source gives them in different places.

Tests used:
MCF-7 cells = test: MCF-7 cell proliferation (CellTiter-Glo cell viability); format: cell-based, human; conditions: for IC50: 48 hours of treatment, read-out: concentration inhibiting proliferation of MCF-7 cells by 50%; for inhibition of MCF-7 cell growth: 50 uM
RSK2 = RSK2 (Homo sapiens, UniProt P51812)
CaLu-1 cells = test: Calu-1 wound migration after siRNA transfection; format: cell-based, human; conditions: wound 48 hours after, 19 hr
Method: Calu-1 cells were transiently transfected in suspension with either control siRNA, RSK1-specific siRNA, RSK2-specific siRNA or both RSK-1 and RSK2-specific siRNA. […] After four hours, the transfection medium was removed and the cells were plated in […] tissue-culture clusters. Forty-eight hours after transfection, scratches were made in the monolayer of cells using sterile, disposable micropipette tips. Images were captured-immediately following the wounding, and 19 hours after wounding. […] By 19 hr, the cells transfected with control siRNA have migrated into the wound. […] Thus, RSK activity is required for Calu-1 migration. More particularly, the ability of the entire monolayer to respond to the wound is depressed in the SL0101-treated cells as well as the siRNA transfected.

HUVEC cells = test: VEGF-induced capillary network formation in HUVEC cells; format: cell-based, human; conditions: 20 μM, 10 ng/ml VEGF, 20 hours
Method: Interfering with tube formation is a characteristic common to anti-angiogenic treatments. HUVEC cells were seeded at a density of 1×10^5 cells per well in 24-well culture dishes coated in growth factor-reduced Matrigel (BD Biosciences). […] The cells were incubated at 37° C. for 20 hours. Images of the cells were captured for analysis of the capillary-like network.

p140, a RSK substrate = test: PDB-induced p140 phosphorylation in MCF-7 cells (immunoblot); format: cell-based, human; conditions: 50 μM, 3 hr pre-incubation, 500 nM PDB 30 min
Method: To determine whether SL0101-1 inhibits RSK in intact cells, phosphorylation of p140, a RSK substrate of unknown function, was examined in a human breast cancer cell line, MCF-7. MCF-7 and MCF-10A cells were pre-incubated with vehicle, 50 μM U0126 or the indicated concentration of SL0101-1 for 3 hr (FIG. 8D). Cells were treated with 500 nM PDB for 30 min prior to lysis. Protein concentration of lysates was measured and lysates were electrophoresed, transferred and immunoblotted. […] Pre-incubation of cells with 100 μM SL0101-1 abrogates phorbol dibutyrate (PDB)-induced p140 phosphorylation as does 50 μM U0126, a MEK inhibitor.
Cell Culture. For proliferation studies cells were seeded at 2500 to 5000 cells per well in 96 well tissue culture plates in the appropriate medium as described by American Type Culture Collection. After 24 hr, the medium was replaced with medium containing compound or vehicle as indicated. Cell viability was measured at indicated time points using CellTiter-Glo™ assay reagent (Promega) according to manufacturer's protocol. For in vivo inhibition studies, cells were seeded at 2.5×10^5 cells/well in 12 well cell culture clusters. After 24 hr, the cells were serum starved for 24 hr then incubated with compound or vehicle for 3 hr prior to a 30 min PDB stimulation. Cells were lysed as previously described (J. Biol. Chem. 273, 13317-13323 (1998)). […]

MCF-10A cells = test: MCF-10A cell proliferation; format: cell-based, human
Method: The cell number was measured after 48 h of treatment. Values given are the fold proliferation as a percentage of that observed with vehicle-treated cells. Points, mean (n=2 in quadruplicate); bars=SD.
FIGS. 8A-8D SL0101-1 inhibits the proliferation of cancer cells but not normal cells. […] Cell viability was measured at indicated time points. Proliferation assays were conducted using CellTiter-Glo Luminescent Cell Viability Assay (Promega), performed 44 hrs after treatment for FIGS. 8A &B and at indicated points for FIG. 8C. The data are expressed relative to time 0.
Cell Culture. For proliferation studies cells were seeded at 2500 to 5000 cells per well in 96 well tissue culture plates in the appropriate medium as described by American Type Culture Collection. After 24 hr, the medium was replaced with medium containing compound or vehicle as indicated. Cell viability was measured at indicated time points using CellTiter-Glo™ assay reagent (Promega) according to manufacturer's protocol. For in vivo inhibition studies, cells were seeded at 2.5×10^5 cells/well in 12 well cell culture clusters. After 24 hr, the cells were serum starved for 24 hr then incubated with compound or vehicle for 3 hr prior to a 30 min PDB stimulation. Cells were lysed as previously described (J. Biol. Chem. 273, 13317-13323 (1998)). The lysates were normalized for total protein, electrophoresed and immunoblotted. For cell imaging, Ha-Ras-transformed NIH/3T3 cells were seeded on LABTEK II chamber slides (Nalge) at a density of 1×10^4 cells/well. After 24 hr, fresh medium was added the indicated compounds or vehicle. Images were taken 48 hr after treatment at a magnification of 20×.

[1] = indicated concentration, 48 h of treatment

Sequence of RSK2 (P51812 1-397 limits assumed): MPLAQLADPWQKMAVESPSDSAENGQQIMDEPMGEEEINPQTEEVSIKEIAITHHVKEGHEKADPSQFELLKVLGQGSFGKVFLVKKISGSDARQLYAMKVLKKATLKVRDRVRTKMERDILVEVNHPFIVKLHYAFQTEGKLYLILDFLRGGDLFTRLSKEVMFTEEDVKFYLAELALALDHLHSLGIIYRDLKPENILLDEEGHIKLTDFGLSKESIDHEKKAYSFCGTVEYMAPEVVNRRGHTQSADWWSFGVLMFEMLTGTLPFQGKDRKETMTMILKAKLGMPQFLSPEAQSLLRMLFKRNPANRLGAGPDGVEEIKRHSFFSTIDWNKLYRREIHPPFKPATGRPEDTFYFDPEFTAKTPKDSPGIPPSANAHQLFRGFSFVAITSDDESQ

CC(=O)OC1C(C)CC(Oc2c(-c3ccc(O)cc3)oc3cc(O)cc(O)c3c2=O)C(O)C1OC(C)=O [compound 14, Kaempferol L-carbarhamnoside 3″,4″-diacetate] was tested, and the IC50 (MCF-7 cells; Homo sapiens, MCF7) was ~30 µM and the “proliferation of MCF-7 cells” value (MCF-7 cells; [1]) was “inhibit proliferation”.

With CC(=O)OC1C(C)CC(Oc2c(-c3ccc(O)cc3)oc3cc(O)cc(O)c3c2=O)C(O)C1O [compound 12, Kaempferol L-carbarhamnoside 4″-acetate] the “proliferation of MCF-7 cells” value (MCF-7 cells; [1]) was “inhibit proliferation”.

In the case of CC(=O)OC1C(C)OC(Oc2c(-c3ccc(O)cc3)oc3cc(O)cc(O)c3c2=O)C(O)C1O [4″-mono-O-acetyl-SL0101, kaempferol 3-O-(4″-mono-O-acetyl-α-L-rhamnopyranoside)], the IC50 (RSK2) is reported as ~0.14 µM and the “inhibition of MCF-7 cell growth” value (MCF-7 cells) is reported as “did not inhibit MCF-7 cell proliferation”.

For CCCC1OC(Oc2c(-c3ccc(O)cc3)oc3cc(O)cc(O)c3c2=O)C(O)C(OC(C)=O)C1OC(C)=O [compound 16, Kaempferol-6″ethyl-L-rhamnoside-3″,4″-diacetate], the IC50 (MCF-7 cells; Homo sapiens, MCF7) was ~30 µM and the “proliferation of MCF-7 cells” value (MCF-7 cells; [1]) was “inhibit proliferation”.

With CC(=O)OC1C(C)CC(Oc2c(-c3ccc(O)cc3)oc3cc(O)cc(O)c3c2=O)C(OC(C)=O)C1O [compound 13, Kaempferol L-carbarhamnoside 2″,4″-diacetate] the IC50 (MCF-7 cells) was ~30 µM and the “proliferation of MCF-7 cells” value (MCF-7 cells; [1]) was “inhibit proliferation”.

For CC(=O)OC1C(C)OC(Oc2c(-c3ccc(O)cc3)oc3cc(O)cc(O)c3c2=O)C(OC(C)=O)C1O [2″,4″-di-O-acetyl-SL0101, kaempferol 3-O-(2″,4″-di-O-acetyl-α-L-rhamnopyranoside)], the IC50 (RSK2) was ~0.26 µM and the “inhibition of MCF-7 cell growth” value (MCF-7 cells) was “similarly effective at inhibiting MCF-7 cell growth”.

For “RSK2-specific siRNA: custom oligonucleotide to Rsk2 mRNA, AACCUAUGGGAGAGGAGGAGA; SEQ ID NO: 2 (listed as RNA, chemistry not given here; listed as Homo sapiens)”, the “migration of Calu-1 cells into wound” value (CaLu-1 cells) was “reduced ability to migrate into the wound”.

“RSK1-specific siRNA: custom oligonucleotide to Rsk1 mRNA, AAGAAGCUGGACUUCAGCCGU; SEQ ID NO: 1 (listed as RNA, chemistry not given here; listed as Homo sapiens)” was tested, and the “migration of Calu-1 cells into wound” value (CaLu-1 cells) was “reduced ability to migrate into the wound”.

For CC(C)c1cc(/C=C(\C#N)C(=O)NCCCc2ccccc2)cc(C(C)C)c1O [SU1498], the capillary-like network formation (HUVEC cells) was “rounded nodes with few tube-like projections”.

In the case of N#CC(=C(/N)Sc1ccccc1N)/C(C#N)=C(\N)Sc1ccccc1N [U0126], the “proliferation of MCF-7 cells” value (MCF-7 cells; 50 μM (FIG. 8A)) is reported as “halted proliferation”, the “PDB-induced p140 phosphorylation” value (p140, a RSK substrate) is reported as “abrogates” and the “proliferation of MCF-10A cells” value (MCF-10A cells; 50 μM (FIG. 8A)) is reported as “halted proliferation”.

In the case of CC(=O)O[C@@H]1[C@@H](OC(C)=O)[C@H](C)O[C@@H](Oc2c(-c3ccc(O)cc3)oc3cc(O)cc(O)c3c2=O)[C@@H]1OC(C)=O [3Ac-SL0101, kaempferol 3-O-(2″,3″,4″-tri-O-acetyl-α-L-rhamnopyranoside)], the “proliferation of MCF-7 cells” value (MCF-7 cells; [1]) is reported as “selectively inhibits MCF-7 breast cancer cell proliferation” and the “proliferation of MCF-10A (nontransformed) cells” value (MCF-10A cells; [1]) is reported as “not nontransformed breast cell proliferation”.

With O=c1c(O)c(-c2ccc(O)cc2)oc2cc(O)cc(O)c12 [kaempferol] the “growth of MCF-7 cells” value (MCF-7 cells; concentration not given) was “slows growth” and the “growth of MCF-10A cells” value (MCF-10A cells; concentration not given) was “slows growth”.

With Cn1cc(C2=C(c3cn(CCCSC(=N)N)c4ccccc34)C(=O)NC2=O)c2ccccc21 [Ro 318220] the “proliferation of MCF-7 cells” value (MCF-7 cells; 500 nM) was “attenuated proliferation” and the “proliferation of MCF-10A cells” value (MCF-10A cells; 500 nM) was “attenuated proliferation”.
